{"source": "BindingDB's records for doi:10.1016/0024-3205(89)90523-7", "about": "(Nida Addiction Research Center, 1989)", "key": {"D(1A) dopamine receptor": {"target": "D(1A) dopamine receptor (Rattus norvegicus, UniProt P18901)", "sequence (P18901 whole entry)": "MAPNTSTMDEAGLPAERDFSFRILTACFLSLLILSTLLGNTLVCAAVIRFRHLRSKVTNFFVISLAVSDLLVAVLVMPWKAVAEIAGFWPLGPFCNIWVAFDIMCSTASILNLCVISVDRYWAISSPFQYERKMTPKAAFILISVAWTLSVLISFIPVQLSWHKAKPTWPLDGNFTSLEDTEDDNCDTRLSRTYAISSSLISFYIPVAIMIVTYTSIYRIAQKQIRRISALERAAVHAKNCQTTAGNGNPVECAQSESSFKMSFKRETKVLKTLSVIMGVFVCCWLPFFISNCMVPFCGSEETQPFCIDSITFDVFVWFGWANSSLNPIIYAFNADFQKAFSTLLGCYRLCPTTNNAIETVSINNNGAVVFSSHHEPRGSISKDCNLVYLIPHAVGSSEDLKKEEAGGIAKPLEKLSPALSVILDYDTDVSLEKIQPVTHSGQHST"}, "[1]": {"target": "T1, Muscarinic acetylcholine receptor M2 (Rattus norvegicus, UniProt P10980)", "T1 sequence (P10980 whole entry)": "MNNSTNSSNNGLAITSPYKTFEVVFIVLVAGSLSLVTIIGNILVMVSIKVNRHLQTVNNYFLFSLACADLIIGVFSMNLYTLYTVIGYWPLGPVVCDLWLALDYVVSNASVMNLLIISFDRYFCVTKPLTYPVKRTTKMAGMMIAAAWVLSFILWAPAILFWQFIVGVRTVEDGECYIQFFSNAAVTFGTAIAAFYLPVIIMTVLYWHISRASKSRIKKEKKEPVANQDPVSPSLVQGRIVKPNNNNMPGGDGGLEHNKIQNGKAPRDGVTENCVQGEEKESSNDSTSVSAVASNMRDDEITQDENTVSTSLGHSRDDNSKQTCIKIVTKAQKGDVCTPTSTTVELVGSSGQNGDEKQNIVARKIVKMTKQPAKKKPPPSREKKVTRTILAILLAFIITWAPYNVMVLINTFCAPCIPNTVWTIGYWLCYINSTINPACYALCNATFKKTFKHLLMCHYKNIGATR"}, "D(2) dopamine receptor": {"target": "D(2) dopamine receptor (Rattus norvegicus, UniProt P61169)", "sequence (P61169 whole entry)": "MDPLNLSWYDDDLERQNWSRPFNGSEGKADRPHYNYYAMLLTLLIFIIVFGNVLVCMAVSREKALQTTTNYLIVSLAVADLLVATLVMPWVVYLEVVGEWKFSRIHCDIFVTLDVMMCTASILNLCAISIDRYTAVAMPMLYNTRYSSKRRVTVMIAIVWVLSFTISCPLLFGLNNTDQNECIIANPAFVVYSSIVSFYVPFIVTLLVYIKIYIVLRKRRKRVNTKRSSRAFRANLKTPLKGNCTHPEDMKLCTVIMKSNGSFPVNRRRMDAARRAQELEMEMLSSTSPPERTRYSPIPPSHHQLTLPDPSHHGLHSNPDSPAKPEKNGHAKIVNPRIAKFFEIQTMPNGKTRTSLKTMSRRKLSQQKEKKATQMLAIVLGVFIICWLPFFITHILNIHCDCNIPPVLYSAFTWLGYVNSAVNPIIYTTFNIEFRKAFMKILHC"}, "[2]": {"target": "T2, Alpha-1A adrenergic receptor (Rattus norvegicus, UniProt P43140)", "T2 sequence (P43140 whole entry)": "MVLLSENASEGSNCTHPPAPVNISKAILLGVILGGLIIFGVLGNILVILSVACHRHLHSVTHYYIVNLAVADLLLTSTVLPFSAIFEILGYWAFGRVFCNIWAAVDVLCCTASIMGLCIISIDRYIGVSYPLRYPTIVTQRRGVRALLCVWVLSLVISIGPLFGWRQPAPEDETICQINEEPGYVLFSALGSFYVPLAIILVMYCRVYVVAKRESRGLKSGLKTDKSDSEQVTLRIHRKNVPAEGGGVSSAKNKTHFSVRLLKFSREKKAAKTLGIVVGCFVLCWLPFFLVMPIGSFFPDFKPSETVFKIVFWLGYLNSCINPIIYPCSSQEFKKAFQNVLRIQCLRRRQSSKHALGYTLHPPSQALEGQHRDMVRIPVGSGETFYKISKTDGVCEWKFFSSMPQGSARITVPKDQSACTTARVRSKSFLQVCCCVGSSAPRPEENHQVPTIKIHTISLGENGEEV"}, "[3]": {"target": "5-hydroxytryptamine receptor 2A (Rattus norvegicus, UniProt P14842)", "sequence (P14842 whole entry)": "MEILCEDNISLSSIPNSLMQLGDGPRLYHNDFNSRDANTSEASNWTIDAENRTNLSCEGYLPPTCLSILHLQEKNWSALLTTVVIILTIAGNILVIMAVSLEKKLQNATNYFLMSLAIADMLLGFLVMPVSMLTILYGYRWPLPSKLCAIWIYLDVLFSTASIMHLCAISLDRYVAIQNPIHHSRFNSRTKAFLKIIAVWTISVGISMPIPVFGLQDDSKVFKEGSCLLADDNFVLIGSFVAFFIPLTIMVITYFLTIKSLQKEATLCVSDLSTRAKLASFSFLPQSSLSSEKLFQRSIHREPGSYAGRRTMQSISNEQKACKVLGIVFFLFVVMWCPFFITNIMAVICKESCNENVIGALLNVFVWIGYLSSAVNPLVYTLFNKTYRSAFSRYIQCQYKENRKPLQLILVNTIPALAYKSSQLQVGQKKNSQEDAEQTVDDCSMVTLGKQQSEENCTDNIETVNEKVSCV"}, "[4]": {"target": "Sodium-dependent dopamine transporter (Rattus norvegicus, UniProt P23977)", "sequence (P23977 whole entry)": "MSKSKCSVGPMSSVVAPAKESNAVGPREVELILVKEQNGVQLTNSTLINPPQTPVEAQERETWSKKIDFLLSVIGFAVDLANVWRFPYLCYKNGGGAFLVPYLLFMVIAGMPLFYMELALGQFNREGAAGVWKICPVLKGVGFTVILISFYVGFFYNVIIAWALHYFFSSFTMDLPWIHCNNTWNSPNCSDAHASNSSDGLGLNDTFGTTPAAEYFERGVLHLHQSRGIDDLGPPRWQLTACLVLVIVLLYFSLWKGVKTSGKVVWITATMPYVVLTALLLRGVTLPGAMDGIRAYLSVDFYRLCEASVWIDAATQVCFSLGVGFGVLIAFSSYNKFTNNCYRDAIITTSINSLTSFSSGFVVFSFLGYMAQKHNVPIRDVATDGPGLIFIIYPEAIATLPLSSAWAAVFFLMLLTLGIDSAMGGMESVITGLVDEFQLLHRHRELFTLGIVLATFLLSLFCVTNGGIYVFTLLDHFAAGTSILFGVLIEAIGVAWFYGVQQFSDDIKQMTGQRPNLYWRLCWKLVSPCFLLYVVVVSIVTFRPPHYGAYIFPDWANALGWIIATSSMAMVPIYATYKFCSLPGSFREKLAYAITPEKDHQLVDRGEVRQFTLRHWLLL"}, "[5]": {"target": "Norepinephrine transporter (Rattus norvegicus, UniProt Q9JIA2)"}}, "note": "Several values for one entry are separate records, joined by “and”; a condition that tells them apart may be missing. Equal values may be shown once."}
{"compound": "CNc1cc(OC)c(C(=O)NCCN(C)Cc2ccc(I)cc2)cc1Cl", "note": "[CAS_130377]", "values": [{"measurement": "Ki", "setting": "D(1A) dopamine receptor", "result": 1880, "unit": "nM"}, {"measurement": "Ki", "setting": "[1]", "result": 110, "unit": "nM"}, {"measurement": "Ki", "setting": "D(2) dopamine receptor", "result": "0.13 nM and 0.215 nM"}, {"measurement": "Ki", "setting": "[2]", "result": 62, "unit": "nM"}, {"measurement": "Ki", "setting": "[3]", "result": 1790, "unit": "nM"}, {"measurement": "Ki", "setting": "[4]", "result": 209, "unit": "nM"}, {"measurement": "Ki", "setting": "[5]", "result": 2720, "unit": "nM"}]}
